Measurements published in patent US10897898B2, “Herbicidal composition comprising cinmethylin and acetochlor or pretilachlor” (BASF Agro B.V., priority 2015, dated 2021).

How the values were obtained:
Type in all cases: in vivo
Conditions in all cases: 20 DAT
Geranium dissectum = test: greenhouse pre-emergence herbicidal activity on GERDI
Procedure: (§1) The test plants have been seeded, separately for each species, in plastic containers in sandy loamy soil containing 5% of organic matter.
(§2) The containers were irrigated gently to promote germination and growth and subsequently covered with transparent plastic hoods until the plants had rooted.
(§3) The plants have been cultivated due to their individual requirements at 10-25° C. and 20-35° C. The plants were irrigated due to their necessity.
(§4) The racemic mixture (±)-2-exo-(2-Methylbenzyloxy)-1-methyl-4-isopropyl-7-oxabicyclo[2.2.1]heptane was used as herbicide A and formulated as emulsifiable concentrates with an active ingredient concentration of 50 g/l, 100 g/l or 750 g/l respectively.
(§5) Acetochlor (herbicide B.1) was used as an encapsulated (CS) formulation having an active ingredient concentration of 400 g/l+67 g/l dichlormid as safener.
(§6) Pretilachlor (herbicide B.2) was used as emulsifiable concentrate (EC) formulation having an active ingredient concentration of 120 g/l.
(§7) In the following experiments, the herbicidal activity for the individual herbicidal compositions (solo and mixture applications) was assessed 20 days after treatment (DAT).
(§8) The evaluation for the damage on undesired weeds caused by the chemical compositions was carried out using a scale from 0 to 100%, compared to the untreated control plants. Here, 0 means no damage and 100 means complete destruction of the plants.
(§9) E=X+Y−(X·Y/100) where X=effect in percent using herbicide A at an application rate a; • Y=effect in percent using herbicide B at application rate b; • E=expected effect (in %) of herbicide A+herbicide B at application rates a+b.
(§10) The value E corresponds to the effect (plant damage or injury) which is to be expected if the activity of the individual compounds is additive. If the observed effect is higher than the value E calculated according to the Colby equation, a synergistic effect is present.
(§11) Tables 1 and 2 below relate to the herbicidal activity, in greenhouse trials, of the individual actives and the combinations applied at different rates and ratios, in pre-emergence application at 20 days after treatment (DAT).

Abutilon theophrasti = test: greenhouse pre-emergence herbicidal activity on ABUTH
Procedure: as §1, §2, §3, §4, §5, §6, §7, §8, §9, §10, §11

Chenopodium album = test: greenhouse pre-emergence herbicidal activity on CHEAL
Procedure: as §1, §2, §3, §4, §5, §6, §7, §8, §9
(§12) The value E corresponds to the effect (plant damage or injury) which is to be expected if the activity of the individual compounds is additive. If the observed effect is higher than the value E calculated according to the Colby equation, a synergistic effect is present. […]

Setaria viridis = test: greenhouse pre-emergence herbicidal activity on SETVI
Procedure: as §1, §2, §3, §4, §5, §6, §7, §8, §9, §10, §11

Polygonum convolvulus = test: greenhouse pre-emergence herbicidal activity on POLCO
Procedure: as §1, §2, §3, §4, §5, §6, §7, §8, §9, §10, §11

Sorghum halepense = test: greenhouse pre-emergence herbicidal activity on SORHA
Procedure: as §1, §2, §3, §4, §5, §6, §7, §8, §9, §10, §11

Echinochloa crus-galli = test: greenhouse pre-emergence herbicidal activity on ECHCG
Procedure: as §1, §2, §3, §4
Acetochlor (herbicide B.1) was used as an encapsulated (CS) formulation having an active ingredient concentration of 400 g/l+67 g/l dichlormid as safener. […]
In the following experiments, the herbicidal activity for the individual herbicidal compositions (solo and mixture applications) was assessed 20 days after treatment (DAT). […]
as §12

Alopecurus myosuroides = test: greenhouse pre-emergence herbicidal activity on ALOMY
Procedure: as §1, §2, §3, §4, §5, §6, §7, §8, §9, §10, §11

Avena fatua = test: greenhouse pre-emergence herbicidal activity on AVEFA
Procedure: as §1, §2, §3, §4, §5, §6, §7, §8, §9, §10, §11

Lolium multiflorum = test: greenhouse pre-emergence herbicidal activity on LOLMU
Procedure: as §1, §2, §3, §4, §5, §6, §7, §8, §9, §10, §11

Stellaria media = test: greenhouse pre-emergence herbicidal activity on STEME
Procedure: as §1, §2, §3, §4, §5, §6, §7, §8, §9, §10, §11

Anthemis arvensis = test: greenhouse pre-emergence herbicidal activity on ANTAR
Procedure: as §1, §2, §3, §4, §5, §6, §7, §8, §9, §10, §11

Compound: (±)-2-exo-(2-Methylbenzyloxy)-1-methyl-4-isopropyl-7-oxabicyclo[2.2.1]heptane [herbicide A]
- herbicidal activity, solo application herbicide A (Geranium dissectum; 31.25 g ai/ha): 50%
- herbicidal activity, solo application herbicide A (Geranium dissectum; 62.5 g ai/ha): 60%
- herbicidal activity, solo application herbicide A (Geranium dissectum; 125 g ai/ha): 60%
- herbicidal activity, solo application herbicide A (Abutilon theophrasti; 31.25 g ai/ha): 30%
- herbicidal activity, solo application herbicide A (Abutilon theophrasti; 62.5 g ai/ha): 60%
- herbicidal activity, solo application herbicide A (Chenopodium album; 31.25 g ai/ha): 40%
- herbicidal activity, solo application herbicide A (Setaria viridis; 31.25 g ai/ha): 90%
- herbicidal activity, solo application herbicide A (Setaria viridis; 62.5 g ai/ha): 98%
- herbicidal activity, solo application herbicide A (Setaria viridis; 125 g ai/ha): 98%
- herbicidal activity, solo application herbicide A (Polygonum convolvulus; 62.5 g ai/ha): 0%
- herbicidal activity, solo application herbicide A (Polygonum convolvulus; 125 g ai/ha): 0%
- herbicidal activity, solo application herbicide A (Polygonum convolvulus; 250 g ai/ha): 15%
- herbicidal activity, solo application herbicide A (Sorghum halepense; 62.5 g ai/ha): 80%
- herbicidal activity, solo application herbicide A (Sorghum halepense; 125 g ai/ha): 95%
- herbicidal activity, solo application herbicide A (Sorghum halepense; 250 g ai/ha): 98%
- herbicidal activity, solo application herbicide A (Echinochloa crus-galli; 31.25 g ai/ha): 98%
- herbicidal activity, solo application herbicide A (Alopecurus myosuroides; 31.25 g ai/ha): 98%
- herbicidal activity, solo application herbicide A (Alopecurus myosuroides; 62.5 g ai/ha): 98%
- herbicidal activity, solo application herbicide A (Alopecurus myosuroides; 125 g ai/ha): 98%
- herbicidal activity, solo application herbicide A (Avena fatua; 31.25 g ai/ha): 0%
- herbicidal activity, solo application herbicide A (Avena fatua; 62.5 g ai/ha): 0%
- herbicidal activity, solo application herbicide A (Avena fatua; 125 g ai/ha): 25%
- herbicidal activity, solo application herbicide A (Avena fatua; 250 g ai/ha): 35%
- herbicidal activity, solo application herbicide A (Lolium multiflorum; 31.25 g ai/ha): 60%
- herbicidal activity, solo application herbicide A (Lolium multiflorum; 62.5 g ai/ha): 75%
- herbicidal activity, solo application herbicide A (Lolium multiflorum; 125 g ai/ha): 85%
- herbicidal activity, solo application herbicide A (Stellaria media; 31.25 g ai/ha): 30%
- herbicidal activity, solo application herbicide A (Stellaria media; 62.5 g ai/ha): 30%
- herbicidal activity, solo application herbicide A (Stellaria media; 125 g ai/ha): 40%
- herbicidal activity, solo application herbicide A (Anthemis arvensis; 31.25 g ai/ha): 0%
- herbicidal activity, solo application herbicide A (Anthemis arvensis; 62.5 g ai/ha): 0%
- herbicidal activity, solo application herbicide A (Anthemis arvensis; 125 g ai/ha): 0%
- herbicidal activity, solo application herbicide A (Anthemis arvensis; 250 g ai/ha): 30%

Compound: CCCOCCN(C(=O)CCl)c1c(CC)cccc1CC [pretilachlor, 2-chloro-N-(2,6-diethylphenyl)-N-(2-propoxyethyl)acetamide]
- herbicidal activity, solo application pretilachlor (Geranium dissectum; 31.3 g ai/ha): 0%
- herbicidal activity, solo application pretilachlor (Geranium dissectum; 63 g ai/ha): 0%
- herbicidal activity, solo application pretilachlor (Geranium dissectum; 125 g ai/ha): 20%
- herbicidal activity, solo application pretilachlor (Chenopodium album; 31.3 g ai/ha): 30%
- herbicidal activity, solo application pretilachlor (Setaria viridis; 31.3 g ai/ha): 25%
- herbicidal activity, solo application pretilachlor (Setaria viridis; 63 g ai/ha): 50%
- herbicidal activity, solo application pretilachlor (Setaria viridis; 125 g ai/ha): 60%
- herbicidal activity, solo application pretilachlor (Polygonum convolvulus; 63 g ai/ha): 15%
- herbicidal activity, solo application pretilachlor (Polygonum convolvulus; 125 g ai/ha): 20%
- herbicidal activity, solo application pretilachlor (Sorghum halepense; 63 g ai/ha): 20%
- herbicidal activity, solo application pretilachlor (Sorghum halepense; 125 g ai/ha): 30%
- herbicidal activity, solo application pretilachlor (Sorghum halepense; 250 g ai/ha): 55%
- herbicidal activity, solo application pretilachlor (Echinochloa crus-galli; 31.3 g ai/ha): 20%
- herbicidal activity, solo application pretilachlor (Alopecurus myosuroides; 63 g ai/ha): 40%
- herbicidal activity, solo application pretilachlor (Alopecurus myosuroides; 125 g ai/ha): 40%
- herbicidal activity, solo application pretilachlor (Avena fatua; 63 g ai/ha): 15%
- herbicidal activity, solo application pretilachlor (Avena fatua; 125 g ai/ha): 20%
- herbicidal activity, solo application pretilachlor (Avena fatua; 250 g ai/ha): 25%
- herbicidal activity, solo application pretilachlor (Lolium multiflorum; 31.3 g ai/ha): 0%
- herbicidal activity, solo application pretilachlor (Lolium multiflorum; 63 g ai/ha): 0%
- herbicidal activity, solo application pretilachlor (Lolium multiflorum; 125 g ai/ha): 25%
- herbicidal activity, solo application pretilachlor (Stellaria media; 31.3 g ai/ha): 30%
- herbicidal activity, solo application pretilachlor (Stellaria media; 63 g ai/ha): 25%
- herbicidal activity, solo application pretilachlor (Stellaria media; 125 g ai/ha): 30%
- herbicidal activity, solo application pretilachlor (Anthemis arvensis; 31.3 g ai/ha): 20%
- herbicidal activity, solo application pretilachlor (Anthemis arvensis; 63 g ai/ha): 20%
- herbicidal activity, solo application pretilachlor (Anthemis arvensis; 125 g ai/ha): 30%
- herbicidal activity, solo application pretilachlor (Anthemis arvensis; 250 g ai/ha): 30%

Compound: CCOCN(C(=O)CCl)c1c(C)cccc1CC [acetochlor, 2-chloro-N-(ethoxymethyl)-N-(2-ethyl-6-methylphenyl)acetamide]
- herbicidal activity, solo application acetochlor (Abutilon theophrasti; 63 g ai/ha): 0%
- herbicidal activity, solo application acetochlor (Abutilon theophrasti; 125 g ai/ha): 0%
- herbicidal activity, solo application acetochlor (Chenopodium album; 63 g ai/ha): 40%
- herbicidal activity, solo application acetochlor (Polygonum convolvulus; 125 g ai/ha): 0%
- herbicidal activity, solo application acetochlor (Polygonum convolvulus; 250 g ai/ha): 20%
- herbicidal activity, solo application acetochlor (Polygonum convolvulus; 500 g ai/ha): 40%
- herbicidal activity, solo application acetochlor (Alopecurus myosuroides; 63 g ai/ha): 50%
- herbicidal activity, solo application acetochlor (Avena fatua; 63 g ai/ha): 20%
- herbicidal activity, solo application acetochlor (Avena fatua; 125 g ai/ha): 70%
- herbicidal activity, solo application acetochlor (Avena fatua; 250 g ai/ha): 70%
- herbicidal activity, solo application acetochlor (Avena fatua; 500 g ai/ha): 80%
- herbicidal activity, solo application acetochlor (Lolium multiflorum; 63 g ai/ha): 70%
- herbicidal activity, solo application acetochlor (Lolium multiflorum; 250 g ai/ha): 95%
- herbicidal activity, solo application acetochlor (Stellaria media; 250 g ai/ha): 98%
- herbicidal activity, solo application acetochlor (Anthemis arvensis; 63 g ai/ha): 35%
- herbicidal activity, solo application acetochlor (Anthemis arvensis; 125 g ai/ha): 70%
- herbicidal activity, solo application acetochlor (Anthemis arvensis; 250 g ai/ha): 80%
- herbicidal activity, solo application acetochlor (Anthemis arvensis; 500 g ai/ha): 90%
